Data on 18 compounds can be found in article PMC8162404, “Proteomimetic surface fragments distinguish targets by function” (Chemical Science, 2020).

In test [1] the target is T1, CaM (Bos taurus, UniProt P62157).
T1 construct: made in house; host or cells: E. coli BL21 (DE3)
Nature of the test: Pull-down assay with immobilized protein and LSM libraries. Format: binding, bovine. The conditions noted are these: H14 library; 1:2 stoichiometry assumed; read-out: Surface mapping KD (apparent). A digest of the protocol: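 His-tagged protein immobilized on Co-NTA resin, equilibrated 30 min at room temperature with LSM sublibraries (64 members, […]), equimolar protein to total probe. CaM buffer: 20 mM HEPES pH 7.4, 150 mM NaCl, 5 mM CaCl2. Bound fractions from HPLC-MS loss of unbound probe versus protein-free resin control; Kd derived.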

The target in test [2] is T1, CaM. Nature of the test: Competition pull-down with native ligand TRPV1-Ct15. The format is binding, bovine. The conditions noted are these: H14 library; competitor peptide 200 µM; read-out: Surface mapping KD (apparent), competition.
The target of test [3] is T2, Gal-1 (Homo sapiens, UniProt P09382).
T2 construct: made in house; host or cells: E. coli BL21(DE3)
T2 sequence (P09382 whole entry): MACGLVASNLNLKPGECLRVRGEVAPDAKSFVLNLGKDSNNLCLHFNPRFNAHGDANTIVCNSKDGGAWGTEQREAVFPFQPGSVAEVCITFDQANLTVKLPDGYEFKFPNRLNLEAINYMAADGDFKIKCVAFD
Nature of the test: Pull-down assay with immobilized protein and LSM libraries. Format: binding. The conditions noted are these: H14 library; 1:1 binding assumed; read-out: Surface mapping KD (apparent). A digest of the protocol: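 His-tagged protein immobilized on Co-NTA resin (64 µM) in 20 mM HEPES pH 7.4, 150 mM NaCl, equilibrated 30 min at room temperature with foldamer LSM sublibraries at equimolar total concentration. Unbound fractions quantified by HPLC-MS versus protein-free resin control; apparent KD assumes 1:1 binding.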

The target of test [4] is T3, S100B (Homo sapiens, UniProt P04271).
T3 construct: made in house; host or cells: Escherichia coli BL21(DE3)
T3 sequence (P04271 1-92): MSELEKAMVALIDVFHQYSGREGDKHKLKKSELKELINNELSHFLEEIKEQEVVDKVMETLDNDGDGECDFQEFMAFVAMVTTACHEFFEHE
The description is as above. The format is binding. The conditions noted are these: for Kd: H14 library, 1:1 binding assumed, read-out: Surface mapping KD (apparent). Put shortly: (§1)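 Buffers were HEPES pH 7.4 with 150 mM NaCl, plus 1 mM TCEP and 1 mM CaCl2 (50 mM HEPES) for S100A4 and S100B, 1 mM TCEP for Gal-1, and no additive for RecQ-WH. Immobilized protein at 64 µM was equilibrated 30 min with the LSM sublibrary, and unbound probes were measured by LC-MS.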

Test [5] concerns the target T2, Gal-1. Nature of the test: Competition pull-down with lactose. The format is binding. The conditions noted are these: H14 library; lactose 10 mM; read-out: Surface mapping KD (apparent), competition. The procedure:
Interactions between the H14 helical LSMs and the targets were abundant, but safe recognition of the native PPI interfaces on the targets is a criterion of druggability. To gain insight into the ability of the LSMs to detect orthosteric spots, we carried out pull-down assays in the presence of the native ligands (Table 2) of the targets (Fig. 5). For highlighting the effect of the competitor on the binding fingerprints, KD ratios and the LSM replacement percentages were calculated and are represented as heat maps (see ESI, Fig. S7 ^†). […] This could be explained by the glycan selective native recognition domain of the protein. We note that the replacement pattern for a single probe can, in theory, be complex. […] Moreover, a single probe can bind to both orthosteric and non-orthosteric spots, which limits overall displacement levels. To avoid overlooking interesting orthosteric weak binders, direct replacement levels were assessed (see ESI, Fig. S7 ^†).
Pull-down assay and data analysis
Pull-down assay. LSM sublibraries were screened separately as previously described.(2) Experiments were performed in the following buffers: (i) 20 mM pH 7.4 HEPES, 150 mM NaCl, 5 mM CaCl2 for CaM; (ii) 50 mM pH 7.4 HEPES, 150 mM NaCl, 1 mM TCEP, 1 mM CaCl2 for S100 proteins; (iii) 20 mM pH 7.4 HEPES, 150 mM NaCl, 1 mM TCEP for Gal-1 and (iv) 20 mM pH 7.4 HEPES, 150 mM NaCl for RecQ-WH. Assays were performed in paper filter spin cups (Thermo Scientific) with sample volumes of 100 µl. Hexahistidine-tagged proteins were immobilized on previously washed Co-NTA resin (TALON, Takara Bio USA, Inc., Mountain View, CA) in 64 µM final concentration. LSM sublibrary was added, in which each of the 64 library members were used at a concentration of 1 µM. Samples were incubated at room temperature for 30 min with shaking at 100 rpm. Then, samples were centrifuged at 1000 rpm for 2 min and washed with 100 µl pull-down buffer to remove unbound compounds.
The control experiments were performed using the same compounds and the resin but without the immobilized protein. In case of competitive assays, competitor peptides were added to LSM sublibrary samples in 200 µM final concentration. In the case of Gal-1, lactose (competitor) was used in a concentration of 10 mM. Experiments were performed at least twice. Mean […]
LC-MS methods and parameters. HPLC/ESI-MS analysis was used to characterize the samples from the pull-down assay. LC-MS analysis was performed with a Thermo Scientific Dionex UltiMate 3000 HPLC system interfaced to an LTQ ion trap mass spectrometer (Thermo Electron Corp., San Jose, CA, USA). Samples were injected onto an Aeris Widepore XB-C18 (250 x 4.6 mm) analytical HPLC column using gradient elution 5-80 % solution B during 25 minutes. For pull-down samples, eluent composition was 0.1% acetic acid in distilled water (Solution A) and 0.1% acetic acid in acetonitrile (solution B). Mass spectra were acquired in full scan mode from 200 to 2000 m/z range. For overlapping peaks, selective reaction monitoring (SRM) was […]
MS data analysis. Thermo Xcalibur 2.2 software was used for peak identification and integration. The majority of the foldameric fragments could be resolved independently via HPLC-MS/MS measurements based on molecular weight, MS fragmentation pattern and retention time. Peaks of some foldamers with β3-hIle or β3-hLeu in position R2 could not be resolved, these were integrated and averaged. In the processing method, each sample component was associated to a chromatographic peak based on previously identified mass (m/z) and retention time (ref (2) and Table S7-10). Using ICIS peak detection algorithm, the general detection and integration criteria were: smoothing points: 5, baseline window: 80, area noise factor: 5, peak noise factor: 10. Using these processing setups, all raw data files were reprocessed together and analyzed. Errors in peak identification during the automatic processing were corrected manually.
Calculation of the discussed parameters […]

For test [6], the target named is T4, S100A4 (Homo sapiens, UniProt P26447).
T4 construct: made in house; host or cells: Escherichia coli BL21(DE3)
T4 sequence (P26447 whole entry): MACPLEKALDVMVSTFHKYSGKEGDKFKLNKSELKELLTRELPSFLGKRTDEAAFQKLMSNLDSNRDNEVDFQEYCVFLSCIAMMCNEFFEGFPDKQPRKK
Nature of the test: Pull-down assay with immobilized protein and LSM libraries. The format is binding. The conditions noted are these: for Kd: H14 library, 1:1 binding assumed, read-out: Surface mapping KD (apparent). A digest of the protocol: as §1

[7] abbreviates: H14 probes selected for validation.

Turning to `NC(=O)CC[C@@H](CC(=O)N[C@H]1CCCC[C@@H]1C(=O)N[C@H]1CCCC[C@@H]1C(=O)N[C@@H](CC(N)=O)CC(=O)N[C@H]1CCCC[C@@H]1C(N)=O)NC(=O)[C@H]1CCCC[C@@H]1N` [H14 QN], the Kd in test [1] turned out to be 177 µM; in test [2], 304 µM; in test [3], 257 µM.
In the same order, the values of `NC(=O)CC[C@@H](CC(=O)N[C@H]1CCCC[C@@H]1C(=O)N[C@H]1CCCC[C@@H]1C(=O)N[C@@H](CC(=O)O)CC(=O)N[C@H]1CCCC[C@@H]1C(N)=O)NC(=O)[C@H]1CCCC[C@@H]1N` [H14 QD] are 231 µM, 349 µM and 379 µM.
In the same order, the values of `C[C@@H](O)[C@@H](CC(=O)N[C@H]1CCCC[C@@H]1C(=O)N[C@H]1CCCC[C@@H]1C(=O)N[C@@H](CCC(N)=O)CC(=O)N[C@H]1CCCC[C@@H]1C(N)=O)NC(=O)[C@H]1CCCC[C@@H]1N` [H14 TQ] are 156 µM, 269 µM and 369 µM.
As to `C[C@@H](O)[C@@H](CC(=O)N[C@H]1CCCC[C@@H]1C(=O)N[C@H]1CCCC[C@@H]1C(=O)N[C@@H](CCCCN)CC(=O)N[C@H]1CCCC[C@@H]1C(N)=O)NC(=O)[C@H]1CCCC[C@@H]1N` [H14 TK], the Kd in test [1] amounted to 88 µM; in test [2], 485 µM; in test [4] it was 172 µM.
Take `C[C@@H](CC(=O)N[C@H]1CCCC[C@@H]1C(=O)N[C@H]1CCCC[C@@H]1C(=O)N[C@H](CC(=O)N[C@H]1CCCC[C@@H]1C(N)=O)[C@@H](C)O)NC(=O)[C@H]1CCCC[C@@H]1N` [H14 AT]: the Kd was determined as 416 µM in test [5], 356 µM in test [6] and 443 µM in test [3].
As to `CSCC[C@@H](CC(=O)N[C@H]1CCCC[C@@H]1C(=O)N[C@H]1CCCC[C@@H]1C(=O)N[C@@H](CC(=O)O)CC(=O)N[C@H]1CCCC[C@@H]1C(N)=O)NC(=O)[C@H]1CCCC[C@@H]1N` [H14 MD], the Kd in test [2] came out at 278 µM; in test [6], 423 µM.
For `CSCC[C@@H](CC(=O)N[C@H]1CCCC[C@@H]1C(N)=O)NC(=O)[C@H]1CCCC[C@@H]1NC(=O)[C@H]1CCCC[C@@H]1NC(=O)C[C@@H](NC(=O)[C@H]1CCCC[C@@H]1N)[C@@H](C)O` [H14 TM], the Kd in test [1] came out at 46 µM; in test [2] it was 113 µM; in test [6] it was 13 µM. Besides, the “Binding” value was “binds” in test [6] (H14 probes) and “does not” in test [4] (H14 probes). Moreover, the “Affinity class of probe (high, medium, low) in pull-down” value in test [6] (setting [7]) is “high”; in test [4] (setting [7]) it was “low”.
On to `NCCCC[C@@H](CC(=O)N[C@H]1CCCC[C@@H]1C(=O)N[C@H]1CCCC[C@@H]1C(=O)N[C@H](CC(=O)N[C@H]1CCCC[C@@H]1C(N)=O)Cc1c[nH]c2ccccc12)NC(=O)[C@H]1CCCC[C@@H]1N` [H14 KW], for which the Kd was 3 µM in test [1], 398 µM in test [2], 184 µM in test [6] and 28 µM in test [4].
On to `CSCC[C@@H](CC(=O)N[C@H]1CCCC[C@@H]1C(=O)N[C@H]1CCCC[C@@H]1C(=O)N[C@@H](CCCCN)CC(=O)N[C@H]1CCCC[C@@H]1C(N)=O)NC(=O)[C@H]1CCCC[C@@H]1N` [H14 MK], for which the Kd in test [1] was 33 µM; in test [5] it was 149 µM; in test [6] it was 339 µM; in test [3] it was 133 µM; in test [4] it was 125 µM.
As for `NCCCC[C@@H](CC(=O)N[C@H]1CCCC[C@@H]1C(=O)N[C@H]1CCCC[C@@H]1C(=O)N[C@H](CC(=O)N[C@H]1CCCC[C@@H]1C(N)=O)Cc1ccccc1)NC(=O)[C@H]1CCCC[C@@H]1N` [H14 KF], the Kd was determined as 8 µM in test [1], 339 µM in test [2], 102 µM in test [6] and 26 µM in test [4].
As to `NC(=O)[C@H]1CCCC[C@@H]1NC(=O)C[C@H](CC(=O)O)NC(=O)[C@H]1CCCC[C@@H]1NC(=O)[C@H]1CCCC[C@@H]1NC(=O)C[C@H](CC(=O)O)NC(=O)[C@H]1CCCC[C@@H]1N` [H14 DD], the Kd in test [2] was determined as 447 µM.
`NC(=O)C[C@@H](CC(=O)N[C@H]1CCCC[C@@H]1C(=O)N[C@H]1CCCC[C@@H]1C(=O)N[C@@H](CCC(=O)O)CC(=O)N[C@H]1CCCC[C@@H]1C(N)=O)NC(=O)[C@H]1CCCC[C@@H]1N` [H14 NE]: the Kd in test [1] amounted to 254 µM; in test [2], 414 µM; in test [3] it was 378 µM.
In the case of `NCCCC[C@@H](CC(=O)N[C@H]1CCCC[C@@H]1C(N)=O)NC(=O)[C@H]1CCCC[C@@H]1NC(=O)[C@H]1CCCC[C@@H]1NC(=O)C[C@H](CCCCN)NC(=O)[C@H]1CCCC[C@@H]1N` [H14 KK], the Kd was determined as 49 µM in test [1], 298 µM in test [5] and 53 µM in test [4].
For the compound `NC(=O)[C@H]1CCCC[C@@H]1NC(=O)C[C@H](CO)NC(=O)[C@H]1CCCC[C@@H]1NC(=O)[C@H]1CCCC[C@@H]1NC(=O)C[C@H](CO)NC(=O)[C@H]1CCCC[C@@H]1N` [H14 SS], the results for the Kd in test [1], in test [2] and in test [3] were 172 µM, 236 µM and 435 µM, respectively.
Turning to `NC(=O)CC[C@@H](CC(=O)N[C@H]1CCCC[C@@H]1C(N)=O)NC(=O)[C@H]1CCCC[C@@H]1NC(=O)[C@H]1CCCC[C@@H]1NC(=O)C[C@H](CC(=O)O)NC(=O)[C@H]1CCCC[C@@H]1N` [H14 DQ], the Kd in test [2] was 212 µM.
As to `NCCCC[C@@H](CC(=O)N[C@H]1CCCC[C@@H]1C(=O)N[C@H]1CCCC[C@@H]1C(=O)N[C@@H](CC(N)=O)CC(=O)N[C@H]1CCCC[C@@H]1C(N)=O)NC(=O)[C@H]1CCCC[C@@H]1N` [H14 KN], the Kd in test [1] came out at 455 µM; in test [5] it was 278 µM; in test [4], 195 µM.
In the case of `C[C@@H](O)[C@@H](CC(=O)N[C@H]1CCCC[C@@H]1C(N)=O)NC(=O)[C@H]1CCCC[C@@H]1NC(=O)[C@H]1CCCC[C@@H]1NC(=O)C[C@H](CCC(N)=O)NC(=O)[C@H]1CCCC[C@@H]1N` [H14 QT], the values for the Kd in test [1], in test [2] and in test [3] were 211 µM, 266 µM and 325 µM, respectively.
As for `C[C@@H](CC(=O)N[C@H]1CCCC[C@@H]1C(N)=O)NC(=O)[C@H]1CCCC[C@@H]1NC(=O)[C@H]1CCCC[C@@H]1NC(=O)C[C@H](CC(N)=O)NC(=O)[C@H]1CCCC[C@@H]1N` [H14 NA], the results for the Kd in test [1] and in test [2] were 185 µM and 399 µM, respectively.
